Measured values published in paper PMC5641330, “Prediction of a Therapeutic Dose for Buagafuran, a Potent Anxiolytic Agent by Physiologically Based Pharmacokinetic/Pharmacodynamic Modeling Starting from Pharmacokinetics in Rats and Human” (Frontiers in Pharmacology, 2017).
Like-named read-outs stand apart in the source and are kept apart here.

Key:
[1] = Clinical plasma PK in healthy volunteers after oral dosing (observed); format: in vivo; conditions: male, human; for AUC(0-t): read-out: AUC0-t Observed; for AUC(0-inf): read-out: AUC0-∞ Observed; for MRT inf: read-out: MRT(0-∞) Observed
Procedure: The study protocol was approved by the Ethics Committee of Peking Union Medical College Hospital approved (Permission Number: 09103), and the Informed Consent Form was signed by all subjects before the study. PVP formulation of buagafuran was packed into capsules for oral administration. In a study of open-label, randomized, cross-over and dose-ranging design, 12 healthy male Chinese volunteers (aged 22–40 with weighing 55–70 kg) received a single oral dose of buagafuran (30, 60, and 120 mg). Serial blood samples were collected up to 48 h. In a phase I, randomized and multiple oral dose study, 5 healthy male Chinese volunteers (aged 20–31 with weighing 55–73 kg) received once-daily oral dose of 60 mg buagafuran for 7 days. On day 1 and 7, plasma samples were collected at the designed time points. Detailed clinical data was previously reported ([Yang et al., 2011], [2013]).
Pharmacokinetic parameters were determined with a non-compartmental model using WinNonlin v 6.0 (Pharsight Corporation, Mountain View, CA, United States). The area under the compound concentration versus time curve from time zero to the last time point (AUC0-t) and extrapolated to infinity (AUC0-∞) and the peak plasma concentration (Cmax) were calculated.

[2] = Brain concentrations in the rat after oral dosing (observed); format: in vivo, male Wistar rats; conditions: oral 4 mg/kg
Description: Animal Care and Welfare Committee of Institute of Materia Medica, Chinese Academy of Medical Sciences approved all animal protocols (1 Xian nong tan Street, Xicheng District, Beijing, China; Permission Number: SYXK 2014-0023, Expiration: 06 Aug, 2019). All animal programs are in compliance with the Guide for the Care and Use of Laboratory Animals issued by Beijing Association on Laboratory Animal Care (BALAC). Buagafuran formulation of PVP was suspended in deionized water and was orally administered at 4 or 8 mg/kg to male Wistar rats (weighing 180–200 g). Brain samples treated with the dose of 4 mg/kg and blood samples of both treatments were collected over 3 h. Plasma samples were obtained by centrifugation, and brain tissues were homogenized in a threefold volume (w/v) of saline. Buagafuran concentrations in plasma and brain samples were quantitated by an LC-MS/MS method ([Yang et al., 2011]).
A volume of 200 μL plasma or tissue homogenate was mixed with 100 μL IS (10 ng/mL) followed by addition of 2 mL hexane. After vortexing for 2 min, the mixture was centrifuged for 5 min at 3000 g. The extracted solution was combined and evaporated to dryness at 25°C. […] The outlet of the column was detected in positive ionization electrospray mode with selected reaction monitoring. The monitored transitions of buagafuran and IS were m/z 245→105 and 500→142, respectively. […]

[3] = set-up: method as in Chen X. et al., 2013; conditions: clinical data; ref Chen X. et al., 2013; cited from earlier work
[4] = oral, 60 mg, multiple dosing (60 mg once daily, 7 days)/first dosing
[5] = oral, 60 mg, multiple dosing (60 mg once daily, 7 days)/last dosing
[6] = po, 30 mg, oral single dosing 30 mg
[7] = po, 60 mg, oral single dosing 60 mg
[8] = po, 120 mg, oral single dosing 120 mg

## CCCCC1=CCC[C@@]2(C)CC[C@@H]3C[C@]12OC3(C)C [buagafuran]
[1]; [4]
  Cmax: 27.1 ng/mL
  AUC(0-t): 99.4 ng·h/mL
  AUC(0-inf): 113 ng·h/mL
  MRT inf: 9.94 h
[1]; oral, 60 mg, multiple dosing (60 mg once daily, 7 days)/first dosing, read-out: Tmax Observed
  Tmax: 2 h
[1]; [5]
  Cmax: 32 ng/mL
  AUC(0-t): 163 ng·h/mL
  AUC(0-inf): 231 ng·h/mL
  MRT inf: 20.9 h
[1]; oral, 60 mg, multiple dosing (60 mg once daily, 7 days)/last dosing, read-out: Tmax Observed
  Tmax: 3 h
[1]; [6]
  Cmax: 19.5 ng/mL
  AUC(0-t): 47.6 ng·h/mL
  AUC(0-inf): 54.9 ng·h/mL
  MRT inf: 3.33 h
[1]; po, 30 mg, oral single dosing 30 mg, read-out: Tmax Observed
  Tmax: 1 h
[1]; [7]
  Cmax: 39.8 ng/mL
  AUC(0-t): 92.4 ng·h/mL
  AUC(0-inf): 95.4 ng·h/mL
  MRT inf: 4.87 h
[1]; po, 60 mg, oral single dosing 60 mg, read-out: Tmax Observed
  Tmax: 1 h
[1]; [8]
  Cmax: 81.6 ng/mL
  AUC(0-t): 246 ng·h/mL
  AUC(0-inf): 272 ng·h/mL
  MRT inf: 5.28 h
[1]; po, 120 mg, oral single dosing 120 mg, read-out: Tmax Observed
  Tmax: 1 h
[1]; po, oral 30–120 mg, read-out: time to peak plasma concentration (Tmax)
  Tmax: 0.5 to 2 h
[2]; male, Wistar, brain, read-out: time of maximum concentrations in brain
  Tmax: 0.25 to 0.5 h
[2]
  time at which brain concentrations were detected: 5 min
[3]
  urine excretion of the dose administered: less than 1%
